What was measured:
[1] = Circular dichroism, secondary structure in solution; assay type: physicochemical; settings: 20° C., Tris-HCl buffer pH 8.0, 1-15% acetonitrile
Description: We used circular dichroism (CD) to characterize the secondary structure of NYAD-1 and CAI in the uncomplexed state in solution. CD spectra were obtained on a Jasco J-715 Spectropolarimeter (Jasco Inc.) at 20° C. using the standard measurement parameters in Tris-HCl buffer (20 mM Tris, pH 8.0) in the presence of 1-15% (v/v) acetonitrile at a final concentration of 125-500 μM. In all the samples, the final concentrations of peptides and salt were always the same, and the spectra were corrected by subtracting the CD spectra of the appropriate reference solvent. Percent α-helix was calculated from molar ellipticity value at 222 nm.
The CD spectra were measured at 25° C. in 1×PBS in the presence of 1-20% (v/v) acetonitrile at a final concentration of peptide of 100 μM.
We used CD spectroscopy to determine the secondary structure characteristics of the stapled peptide NYAD-36. The corresponding linear peptide, NYAD-41, was used as control.

[2] = target: T1, C-terminal CA (C-CA) of capsid (Human immunodeficiency virus type 1 group M subtype B, UniProt P04591); settings: estimated, read-out: dissociation constant (Kd); cited from earlier work
T1 construct: targeting the C-terminal CA (C-CA) of capsid

ITFEDLLDYYGP [CAI]
secondary structure in solution by CD [1]: random coil structure
Kd [2]: ~15 µM

Reference: patent publication US8937154B2, “Stabilized therapeutic small helical antiviral peptides” (priority 2006, dated 2015)
